Laboratory results reported in ChEMBL document CHEMBL1201862, “PubChem BioAssay data set” (2004).
Each block holds one compound with its values, some of them ahead of it. Activity calls are given as the source filed them.

Experiments:
Assay type in all cases: functional
Hexokinase HKDC1 = target: T1, Hexokinase HKDC1 (Homo sapiens, UniProt Q2TB90); assay: inhibition of HKDC1 glucose phosphorylation – biochemical, W721R variant, dose response (AID 504729)
T1 sequence (Q2TB90 whole entry): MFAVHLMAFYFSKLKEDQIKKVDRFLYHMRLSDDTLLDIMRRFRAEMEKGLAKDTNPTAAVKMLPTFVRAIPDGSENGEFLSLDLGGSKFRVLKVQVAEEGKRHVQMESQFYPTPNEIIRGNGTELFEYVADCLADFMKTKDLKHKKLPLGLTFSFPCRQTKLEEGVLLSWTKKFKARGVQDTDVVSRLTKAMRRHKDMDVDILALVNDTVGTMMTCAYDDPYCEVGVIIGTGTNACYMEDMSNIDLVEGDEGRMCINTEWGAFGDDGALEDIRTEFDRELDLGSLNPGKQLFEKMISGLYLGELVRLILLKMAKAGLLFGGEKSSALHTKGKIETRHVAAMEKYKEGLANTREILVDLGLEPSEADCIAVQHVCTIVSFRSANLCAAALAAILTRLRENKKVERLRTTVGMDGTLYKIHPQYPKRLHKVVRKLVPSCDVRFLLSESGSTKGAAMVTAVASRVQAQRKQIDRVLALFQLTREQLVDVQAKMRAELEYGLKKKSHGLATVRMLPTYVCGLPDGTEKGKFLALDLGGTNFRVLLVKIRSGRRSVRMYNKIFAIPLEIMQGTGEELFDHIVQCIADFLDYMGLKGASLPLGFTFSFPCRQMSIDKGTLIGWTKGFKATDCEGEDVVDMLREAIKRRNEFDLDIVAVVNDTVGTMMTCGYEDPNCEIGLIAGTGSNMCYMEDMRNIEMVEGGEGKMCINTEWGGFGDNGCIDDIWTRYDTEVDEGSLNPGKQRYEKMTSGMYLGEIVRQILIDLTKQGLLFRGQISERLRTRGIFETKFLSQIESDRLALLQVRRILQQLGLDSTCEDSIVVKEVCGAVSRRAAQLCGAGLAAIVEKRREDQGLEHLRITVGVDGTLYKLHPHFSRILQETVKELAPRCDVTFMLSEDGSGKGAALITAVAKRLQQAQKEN

[1] = target: Protein kinase C zeta type (Homo sapiens, UniProt Q05513);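 note: measured as one member of a broad kinase profiling panel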
[2] = target: MAP kinase-activated protein kinase 3 (Homo sapiens, UniProt Q16644);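 note: value comes from a kinome-wide profiling panel in which MAPKAPK3 is one of the panel members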
[3] = target: Serine/threonine-protein kinase PAK 1 (Homo sapiens, UniProt Q13153)
[4] = target: Mitogen-activated protein kinase 1 (Homo sapiens, UniProt P28482)
[5] = target: Receptor tyrosine-protein kinase erbB-2 (Homo sapiens, UniProt P04626); assay: Navigating the Kinome. Panel member name: ERBB2
[6] = target: Inhibitor of nuclear factor kappa-B kinase subunit beta (Homo sapiens, UniProt O14920)
[7] = target: Tyrosine-protein kinase ITK/TSK (Homo sapiens, UniProt Q08881);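 note: affinity for ITK measured as one member of a broad kinase panel profiling binding across the kinome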
[8] = target: Calcium/calmodulin-dependent protein kinase type 1 (Homo sapiens, UniProt Q14012)
[9] = target: RAC-alpha serine/threonine-protein kinase (Homo sapiens, UniProt P31749);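 note: AKT1 affinity measured as one member of a kinome-wide kinase profiling panel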
Insulin receptor = Insulin receptor (Homo sapiens, UniProt P06213);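 note: insulin receptor kinase tested as one member of a kinome-wide kinase panel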
[10] = target: RAC-gamma serine/threonine-protein kinase (Homo sapiens, UniProt Q9Y243)
[11] = target: Dual specificity protein kinase CLK2 (Homo sapiens, UniProt P49760)
[12] = target: Inhibitor of nuclear factor kappa-B kinase subunit epsilon (Homo sapiens, UniProt Q14164); assay: Navigating the Kinome. Panel member name: IKBKE
[13] = target: Calcium/calmodulin-dependent protein kinase type II subunit alpha (Homo sapiens, UniProt Q9UQM7); assay: Navigating the Kinome. Panel member name: CAMK2A
[14] = target: G protein-coupled receptor kinase 5 (Homo sapiens, UniProt P34947); assay: Navigating the Kinome. Panel member name: GPRK5
[15] = target: Tyrosine-protein kinase BTK (Homo sapiens, UniProt Q06187)
[16] = target: cAMP-dependent protein kinase catalytic subunit PRKX (Homo sapiens, UniProt P51817)
Focal adhesion kinase 1 = Focal adhesion kinase 1 (Homo sapiens, UniProt Q05397);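 note: measured as one member of a kinome panel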
[17] = target: Mitogen-activated protein kinase kinase kinase kinase 4 (Homo sapiens, UniProt O95819)

Sequence of cAMP-dependent protein kinase catalytic subunit PRKX (P51817 whole entry): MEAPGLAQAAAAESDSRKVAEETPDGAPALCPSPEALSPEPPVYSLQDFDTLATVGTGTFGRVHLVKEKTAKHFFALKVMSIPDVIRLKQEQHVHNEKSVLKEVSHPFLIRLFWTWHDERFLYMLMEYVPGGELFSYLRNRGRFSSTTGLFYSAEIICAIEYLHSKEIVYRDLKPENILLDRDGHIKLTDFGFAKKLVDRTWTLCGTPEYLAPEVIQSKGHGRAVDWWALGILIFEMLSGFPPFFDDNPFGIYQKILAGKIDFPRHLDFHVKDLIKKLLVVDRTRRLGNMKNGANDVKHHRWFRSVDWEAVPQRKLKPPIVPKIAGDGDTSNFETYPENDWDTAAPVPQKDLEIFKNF
Sequence of Tyrosine-protein kinase ITK/TSK (Q08881 whole entry): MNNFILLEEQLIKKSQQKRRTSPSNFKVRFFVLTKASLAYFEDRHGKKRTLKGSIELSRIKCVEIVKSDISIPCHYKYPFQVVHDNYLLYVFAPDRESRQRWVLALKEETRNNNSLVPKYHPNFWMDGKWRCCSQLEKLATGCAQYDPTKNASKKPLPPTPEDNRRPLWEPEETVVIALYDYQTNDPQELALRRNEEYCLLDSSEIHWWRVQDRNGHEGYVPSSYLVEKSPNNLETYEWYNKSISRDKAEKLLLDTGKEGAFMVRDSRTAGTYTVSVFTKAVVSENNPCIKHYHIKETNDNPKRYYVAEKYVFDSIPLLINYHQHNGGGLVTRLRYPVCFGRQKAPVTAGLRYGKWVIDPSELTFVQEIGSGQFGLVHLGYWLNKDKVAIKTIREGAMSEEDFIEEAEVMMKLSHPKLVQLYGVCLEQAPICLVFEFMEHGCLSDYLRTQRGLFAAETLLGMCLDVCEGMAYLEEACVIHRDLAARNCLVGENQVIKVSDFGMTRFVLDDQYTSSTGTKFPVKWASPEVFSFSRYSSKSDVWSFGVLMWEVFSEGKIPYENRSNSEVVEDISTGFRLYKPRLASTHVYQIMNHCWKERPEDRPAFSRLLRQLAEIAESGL
Sequence of G protein-coupled receptor kinase 5 (P34947 whole entry): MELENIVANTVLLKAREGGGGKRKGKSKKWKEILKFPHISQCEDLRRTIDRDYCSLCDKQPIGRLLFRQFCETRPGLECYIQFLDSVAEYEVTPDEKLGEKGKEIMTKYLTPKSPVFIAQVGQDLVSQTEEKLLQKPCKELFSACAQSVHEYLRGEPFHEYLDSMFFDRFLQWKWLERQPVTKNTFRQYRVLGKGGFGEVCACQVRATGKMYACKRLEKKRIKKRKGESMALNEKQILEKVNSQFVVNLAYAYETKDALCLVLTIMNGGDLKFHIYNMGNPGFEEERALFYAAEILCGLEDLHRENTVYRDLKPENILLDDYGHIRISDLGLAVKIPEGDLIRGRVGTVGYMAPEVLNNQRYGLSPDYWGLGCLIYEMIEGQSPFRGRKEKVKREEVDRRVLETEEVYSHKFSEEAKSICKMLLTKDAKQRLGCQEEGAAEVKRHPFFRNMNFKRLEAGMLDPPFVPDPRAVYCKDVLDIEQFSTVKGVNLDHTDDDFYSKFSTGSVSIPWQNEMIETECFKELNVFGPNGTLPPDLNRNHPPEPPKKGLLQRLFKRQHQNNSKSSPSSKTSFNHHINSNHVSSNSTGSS
Sequence of Mitogen-activated protein kinase 1 (P28482 whole entry): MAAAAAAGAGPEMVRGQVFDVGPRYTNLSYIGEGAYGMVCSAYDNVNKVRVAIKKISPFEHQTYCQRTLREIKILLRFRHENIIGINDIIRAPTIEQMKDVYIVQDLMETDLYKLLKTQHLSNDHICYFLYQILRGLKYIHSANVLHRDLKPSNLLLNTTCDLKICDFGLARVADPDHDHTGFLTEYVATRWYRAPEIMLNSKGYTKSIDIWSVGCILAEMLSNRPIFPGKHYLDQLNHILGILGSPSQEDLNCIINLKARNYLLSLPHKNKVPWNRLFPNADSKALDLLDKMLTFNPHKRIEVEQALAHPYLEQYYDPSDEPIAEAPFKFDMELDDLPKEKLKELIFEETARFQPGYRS
Sequence of Receptor tyrosine-protein kinase erbB-2 (P04626 whole entry): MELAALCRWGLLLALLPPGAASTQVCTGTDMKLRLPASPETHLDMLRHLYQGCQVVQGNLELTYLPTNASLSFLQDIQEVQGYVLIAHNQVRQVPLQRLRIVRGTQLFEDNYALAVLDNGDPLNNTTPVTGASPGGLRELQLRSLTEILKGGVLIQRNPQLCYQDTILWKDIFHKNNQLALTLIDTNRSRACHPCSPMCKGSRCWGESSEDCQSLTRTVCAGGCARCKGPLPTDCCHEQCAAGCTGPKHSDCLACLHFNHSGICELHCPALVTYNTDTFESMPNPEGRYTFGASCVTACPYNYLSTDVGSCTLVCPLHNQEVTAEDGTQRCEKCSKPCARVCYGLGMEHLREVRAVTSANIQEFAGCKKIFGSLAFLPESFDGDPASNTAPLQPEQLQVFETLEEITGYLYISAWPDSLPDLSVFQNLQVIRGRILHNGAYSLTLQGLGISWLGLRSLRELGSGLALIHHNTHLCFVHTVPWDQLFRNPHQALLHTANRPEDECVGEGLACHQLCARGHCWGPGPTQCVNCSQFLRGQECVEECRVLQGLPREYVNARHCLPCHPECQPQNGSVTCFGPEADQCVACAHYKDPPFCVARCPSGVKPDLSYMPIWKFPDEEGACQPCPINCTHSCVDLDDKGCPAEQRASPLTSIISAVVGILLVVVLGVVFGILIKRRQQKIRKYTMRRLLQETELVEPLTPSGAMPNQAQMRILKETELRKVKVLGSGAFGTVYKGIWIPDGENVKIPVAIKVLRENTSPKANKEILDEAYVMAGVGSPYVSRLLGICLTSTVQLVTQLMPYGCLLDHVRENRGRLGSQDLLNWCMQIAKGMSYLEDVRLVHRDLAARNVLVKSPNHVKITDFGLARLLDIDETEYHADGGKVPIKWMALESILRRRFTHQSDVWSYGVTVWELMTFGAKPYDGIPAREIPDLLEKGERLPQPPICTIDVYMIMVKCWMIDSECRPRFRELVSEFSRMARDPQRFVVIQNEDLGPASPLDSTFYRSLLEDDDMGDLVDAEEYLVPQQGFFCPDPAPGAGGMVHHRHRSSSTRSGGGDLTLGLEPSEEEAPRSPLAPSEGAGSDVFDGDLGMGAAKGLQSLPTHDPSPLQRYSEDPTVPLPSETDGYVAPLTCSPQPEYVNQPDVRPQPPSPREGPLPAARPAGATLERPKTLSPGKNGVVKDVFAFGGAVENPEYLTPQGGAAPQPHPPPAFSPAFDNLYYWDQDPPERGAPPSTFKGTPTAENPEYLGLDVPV
Sequence of Inhibitor of nuclear factor kappa-B kinase subunit beta (O14920 whole entry): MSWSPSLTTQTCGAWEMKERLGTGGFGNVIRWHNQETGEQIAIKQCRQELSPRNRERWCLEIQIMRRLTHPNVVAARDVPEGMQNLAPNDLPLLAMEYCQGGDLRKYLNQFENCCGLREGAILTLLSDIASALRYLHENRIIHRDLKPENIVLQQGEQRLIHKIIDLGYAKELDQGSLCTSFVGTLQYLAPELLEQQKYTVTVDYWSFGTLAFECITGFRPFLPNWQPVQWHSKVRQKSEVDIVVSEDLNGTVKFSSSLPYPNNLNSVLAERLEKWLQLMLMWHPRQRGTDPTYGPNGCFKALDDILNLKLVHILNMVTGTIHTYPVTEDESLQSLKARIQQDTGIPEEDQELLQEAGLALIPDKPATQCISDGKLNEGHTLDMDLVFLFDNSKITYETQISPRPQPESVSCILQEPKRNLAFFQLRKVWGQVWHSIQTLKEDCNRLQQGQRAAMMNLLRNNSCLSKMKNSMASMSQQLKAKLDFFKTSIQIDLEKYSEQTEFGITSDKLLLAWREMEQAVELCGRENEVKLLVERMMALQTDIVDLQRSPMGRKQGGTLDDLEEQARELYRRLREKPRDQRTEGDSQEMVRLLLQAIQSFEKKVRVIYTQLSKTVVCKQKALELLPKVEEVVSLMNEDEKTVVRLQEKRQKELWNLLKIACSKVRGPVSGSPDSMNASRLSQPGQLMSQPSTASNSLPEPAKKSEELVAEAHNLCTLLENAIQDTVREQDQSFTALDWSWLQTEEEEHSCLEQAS
Sequence of RAC-gamma serine/threonine-protein kinase (Q9Y243 whole entry): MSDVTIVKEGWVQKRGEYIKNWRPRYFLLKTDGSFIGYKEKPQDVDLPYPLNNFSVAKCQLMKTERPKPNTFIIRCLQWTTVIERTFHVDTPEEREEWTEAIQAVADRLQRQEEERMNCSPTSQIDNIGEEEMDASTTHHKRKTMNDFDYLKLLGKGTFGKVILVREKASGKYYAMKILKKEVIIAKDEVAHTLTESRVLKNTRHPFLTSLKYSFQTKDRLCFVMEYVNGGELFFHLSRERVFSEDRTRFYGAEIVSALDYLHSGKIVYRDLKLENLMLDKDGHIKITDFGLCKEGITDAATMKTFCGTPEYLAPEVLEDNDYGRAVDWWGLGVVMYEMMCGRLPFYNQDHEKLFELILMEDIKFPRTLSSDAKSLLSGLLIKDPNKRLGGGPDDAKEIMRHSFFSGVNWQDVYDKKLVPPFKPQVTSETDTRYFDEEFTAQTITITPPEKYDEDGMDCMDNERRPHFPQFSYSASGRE
Sequence of Dual specificity protein kinase CLK2 (P49760 whole entry): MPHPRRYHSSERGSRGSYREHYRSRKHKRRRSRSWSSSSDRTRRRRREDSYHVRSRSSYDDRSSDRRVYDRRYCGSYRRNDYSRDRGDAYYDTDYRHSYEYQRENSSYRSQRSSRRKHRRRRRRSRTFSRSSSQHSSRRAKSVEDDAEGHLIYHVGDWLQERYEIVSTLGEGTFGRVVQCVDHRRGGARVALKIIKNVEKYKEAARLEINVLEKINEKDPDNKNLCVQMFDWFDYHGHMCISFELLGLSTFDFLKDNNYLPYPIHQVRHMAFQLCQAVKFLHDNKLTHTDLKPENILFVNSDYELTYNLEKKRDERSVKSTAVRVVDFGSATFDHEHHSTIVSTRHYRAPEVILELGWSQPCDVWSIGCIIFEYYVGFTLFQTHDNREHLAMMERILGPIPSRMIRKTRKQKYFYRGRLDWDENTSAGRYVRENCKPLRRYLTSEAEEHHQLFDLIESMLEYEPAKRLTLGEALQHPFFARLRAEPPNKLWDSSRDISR

Compound: O=C1C=C(NCc2ccccc2)c2ccccc2C1=O
IC50 (Hexokinase HKDC1): 2.5 µM (active)

Ki [1]: > 7.94 µM (inactive)
Ki [2]: > 10 µM (inactive)
Ki [3]: > 10 µM (inactive)
Ki [4]: > 7.94 µM (inactive)
Ki [5]: > 1.58 µM (inactive)
Ki [6]: > 3.16 µM (inactive)
Ki [7]: > 1.58 µM (inactive)
Ki [8]: > 7.94 µM (inactive)
Ki [9]: > 7.94 µM (inactive)
Ki (Insulin receptor): > 5.01 µM (inactive)
Ki [10]: > 10 µM (inactive)
Compound: CCOC(=O)c1cn(-c2ccc(O)cc2C)c2cc(-c3ccncc3)ccc2c1=O

Ki [11]: > 3.98 µM (inactive)
Ki [12]: > 3.16 µM (inactive)
Ki [13]: > 3.98 µM (inactive)
Ki [14]: > 3.98 µM (inactive)
Ki [15]: > 6.31 µM (inactive)
Ki [16]: > 3.16 µM (inactive)
Ki (Focal adhesion kinase 1): > 6.31 µM (inactive)
Ki [17]: > 5.01 µM (inactive)
Compound: Cc1cc(=O)[nH]nc1-c1ccc(NC(=O)Nc2cc(C(F)(F)F)ccc2F)c(Cl)c1
